Experimental data published in patent publication US20250163057A1, “DCN-1 MODULATING COMPOUNDS AND METHODS OF USE THEREOF” (Cellarity, Inc., priority 2023, published 2025).
Where two headings read alike, the source gives them in different places.

Columns and labels:
[1] = system: Cullin-3 (CUL3) neddylation; experiment: AlphaLISA assay for Cullin-3 (CUL3) neddylation in TF 1 cells; format: cell-based; settings: Homo sapiens, 3 hours treatment
Procedure, shortened: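 Neddylated CUL3 was quantified by AlphaLISA in lysates of TF 1 cells exposed for 3 h to test compound in IMDM without supplements. Percent inhibition set between vehicle and 1 μM DI-1548 positive control; IC50 derived by Hill-equation fitting of dose-response curves.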

[2] = molecular target: DCN1 (DCUND1) protein PONY domain (Homo sapiens (Human), UniProt Q96GG9); experiment: TR-FRET assay, DCN1 binding with FAM-labeled probe
Procedure, shortened: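 Binding was read as the TR-FRET ratio between a FAM-tagged inhibitor probe and Tb-labeled biotinylated E. coli-expressed DCN1 PONY domain, measured 1, 5 and 24 h after compound addition. The two setups used 5 nM protein/20 nM FAM-probe or 0.31 nM protein/900 nM total probe (100 nM labeled), in TritonX buffer with 200 mM NaCl.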

[3] = 24 hr after treatment with compound, read-out: TR FRET IC50 24 hr
[4] = TR FRET IC50 1 hr (nM), 1 hr after treatment with compound
[5] = read-out: TR FRET IC50 1 hr, 1 hr after treatment with compound

DCN1 (DCUND1) protein PONY domain, sequence (Q96GG9 60-248): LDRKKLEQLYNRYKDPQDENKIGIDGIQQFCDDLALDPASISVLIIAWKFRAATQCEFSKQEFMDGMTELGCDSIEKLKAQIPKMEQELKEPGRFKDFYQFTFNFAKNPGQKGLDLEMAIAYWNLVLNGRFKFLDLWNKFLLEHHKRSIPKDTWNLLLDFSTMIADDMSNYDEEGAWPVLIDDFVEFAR

| SMILES | IC50 ([1]; TF-1, 3 h) [nM] | IC50 [2, 3] [nM] | IC50 [2, 4] [nM] | IC50 [1] [nM] | IC50 [2, 5] [nM] |
| --- | --- | --- | --- | --- | --- |
| CCN1C(=O)[C@H](NC(=O)c2cccc(C(F)(F)F)c2)[C@@H](c2ccc(F)cc2)c2c(COCC#N)nn(-c3ccccc3)c21 [Compound I-522] | > 1000 | 1000 to 3000 | 1000 to 3000 | – | – |
| CCN1C(=O)[C@@H](NC(=O)c2cccc(C(F)(F)F)c2)[C@@H](C2CCCC2)c2c(C(=O)N(C)[C@H](C)C#N)nn(C3CCOCC3)c21 [Compound I-524] | ≤ 100 | ≤ 200 | 200 to 1000 | – | – |
| CCN1C(=O)[C@H](NC(=O)c2cccc(C(F)(F)F)c2)[C@H](c2ccc(F)cn2)c2c([C@@H](C)NC#N)nn(-c3ccccc3)c21 [Compound I-525] | > 1000 | 1000 to 3000 | 1000 to 3000 | – | – |
| CCN1C(=O)[C@@H](NC(=O)c2ccc3ccoc3c2)[C@@H](C2CC2)c2c(C(=O)N3[C@H](C#N)C[C@H]4C[C@H]43)nn(C3CCOCC3)c21 [Compound I-526] | – | ≤ 200 | – | ≤ 100 | ≤ 200 |
| CCN1C(=O)[C@@H](NC(=O)c2cccc3cccnc23)[C@@H](C2CC2)c2c(C(=O)N3[C@H](C#N)C[C@H]4C[C@H]43)nn(C3CCOCC3)c21 [Compound I-527] | 100 to 1000 | ≤ 200 | 200 to 1000 | – | – |
| CCN1C(=O)[C@@H](NC(=O)c2cccc(C(F)(F)F)c2)[C@@H](c2ccc(F)cc2)c2c([C@H](C)NC#N)nn(-c3ccccc3)c21 [Compound I-530] | ≤ 100 | ≤ 200 | 200 to 1000 | – | – |
| C=CC(=O)N[C@H](C)c1nn(-c2ccccc2)c2c1[C@@H](c1ccc(F)cc1)[C@H](NC(=O)c1nccc(C(F)(F)F)n1)C(=O)N2CC [Compound I-533] | 100 to 1000 | 200 to 1000 | 200 to 1000 | – | – |
| CCN1C(=O)[C@H](NC(=O)c2cccc(C(F)(F)F)c2)[C@H](c2ccc(F)cc2)c2c(C(=O)N3CCNC[C@@H]3C#N)nn(-c3ccccc3)c21 [Compound I-534] | > 1000 | 1000 to 3000 | 1000 to 3000 | – | – |
| CCN1C(=O)[C@H](NC(=O)c2cccc(C(F)(F)F)c2)[C@H](c2ccc(F)cc2)c2c(C(=O)N3CC[C@H]3C#N)nn(-c3ccccc3)c21 [Compound I-535] | > 1000 | 1000 to 3000 | 1000 to 3000 | – | – |
| CCN1C(=O)[C@@H](NC(=O)c2cccc(C(F)(F)F)c2)[C@@H](c2ccc(F)cc2)c2c([C@@H](C)N(C#N)C(=O)OCCN3CCN(C)CC3)nn(-c3ccccc3)c21 [Compound I-536] | 100 to 1000 | ≤ 200 | – | – | ≤ 200 |
| CCN1C(=O)[C@@H](NC(=O)c2cccc(C(F)(F)F)c2)[C@@H](c2ccc(F)cc2)c2c(CCN(C#N)CCO)nn(-c3ccccc3)c21 [Compound I-538] | 100 to 1000 | ≤ 200 | 200 to 1000 | – | – |
| CCN1C(=O)[C@@](C)(NC(=O)c2cccc(C(F)(F)F)c2)[C@@H](c2ccc(F)cc2)c2c([C@@H](C)NC#N)nn(-c3ccccc3)c21 [Compound I-539] | ≤ 100 | ≤ 200 | – | – | ≤ 200 |
| CCN1C(=O)[C@H](NC(=O)c2cccc(C(F)(F)F)c2)[C@H](c2ccc(F)cc2)c2c(C(=O)N3CCOC[C@H]3C#N)nn(-c3ccccc3)c21 [Compound I-540] | > 1000 | 1000 to 3000 | 1000 to 3000 | – | – |
| CCN1C(=O)[C@H](NC(=O)c2cccc(C(F)(F)F)c2)[C@H](c2ccc(F)cc2)c2c(C(=O)N3[C@H](C#N)C[C@H]4C[C@H]43)nn(-c3ccccc3)c21 [Compound I-541] | > 1000 | 1000 to 3000 | 1000 to 3000 | – | – |
| CCN1C(=O)[C@@H](NC(=O)c2cccc(C(F)(F)F)c2)[C@@H](c2ccc(F)cc2)c2c(CN(CC#N)C(C)=O)nn(-c3ccccc3)c21 [Compound I-542, N-((4S,5S)-3-((N-(cyanomethyl)acetamido)methyl)-7-ethyl-4-(4-fluorophenyl)-6-oxo-1-phenyl-4,5,6,7-tetrahydro-1H-pyrazolo[3,4-b]pyridin-5-yl)-3-(trifluoromethyl)benzamide] | 100 to 1000 | 200 to 1000 | 1000 to 3000 | – | – |
